From paper PMC7272617 (Scientific Reports, 2020)
Values after ≈ are worked out from the molar mass of the structure shown. Where a SMILES comes first, the peptide text is derived from it.

Tests used:
[1] = test system: P. aeruginosa ATCC 27853; details: ATCC 27853, 24 h
[2] = test system: MDR P. aeruginosa clinical isolate No.9; details: MDR clinical isolate No.9, 24 h
[3] = test system: MDR P. aeruginosa clinical isolate No.7; details: MDR clinical isolate No.7, 24 h
[4] = test system: MDR P. aeruginosa clinical isolate No.11; details: MDR clinical isolate No.11, 24 h
[5] = test system: all Gram-positive strains; assay: Mean MIC and therapeutic index, Gram-positive strains; format: cell-based; details: 5 Gram-positive strains of Table 3
[6] = test system: all Gram-negative strains; assay: Mean MIC and therapeutic index, Gram-negative strains; format: cell-based; details: 7 Gram-negative strains of Table 3
[7] = test system: MDR P. aeruginosa clinical isolate No.8; details: MDR clinical isolate No.8, 24 h
[8] = test system: Enterococcus faecalis ATCC 29212; details: ATCC 29212, 24 h
[9] = test system: P. aeruginosa ATCC 27853; assay: Transmission electron microscopy (TEM); format: cell-based, Pseudomonas aeruginosa; details: 0.5 × MIC, 2 h; result in words
Method: The bacterial cells were treated and prepared with the same conditions as previously described in SEM[8]. The bacterial pellets were washed twice with PBS and post-fixed with 1% osmium tetroxide in PBS for 2 h, after overnight fixing with 2.5% glutaraldehyde. The fixed bacterial cells were washed twice with PBS, followed by dehydration for 15 min in a graded ethanol series (50%, 70%, 90%, and 100%). After placing in absolute acetone for 20 min, these samples were transferred to a mixture of absolute acetone and epoxy resin (1:1 and 1:3) for 1 h each, followed by transfer to pure epoxy resin and held overnight. Ultrathin sections were cut with a glass knife on an ultramicrotome, and post-stained with uranyl acetate and lead citrate. Specimens were observed using a transmission electron microscope (Hitachi HT7700, Japan).

[10] = test system: Escherichia coli O157:H7 MT strain; details: E. coli O157:H7 MT strain; MHB, 37 °C, 24 h
[11] = test system: Acinetobacter baumannii MT strain; details: MT strain, 24 h
[12] = test system: MDR P. aeruginosa clinical isolate No.2; details: MDR clinical isolate No.2, 24 h
[13] = test system: MDR P. aeruginosa isolates; assay: MIC against all tested MDR P. aeruginosa isolates; format: cell-based, Pseudomonas aeruginosa; details: times higher than ciprofloxacin
[14] = test system: MDR P. aeruginosa clinical isolate No.10; details: MDR clinical isolate No.10, 24 h
[15] = test system: L929 mouse fibroblast cells; assay: Cytotoxicity, MTT viability assay; details: 3.91 µg/ml, 24 h
[16] = test system: MDR P. aeruginosa clinical isolate No.3; details: MDR clinical isolate No.3, 24 h
[17] = test system: MDR P. aeruginosa clinical isolate No.5; details: MDR clinical isolate No.5, 24 h
[18] = test system: MDR P. aeruginosa clinical isolate No.1
[19] = test system: P. aeruginosa ATCC 27853; assay: Time-killing kinetics; format: cell-based, Pseudomonas aeruginosa
Method: The bacterial killing kinetics of PA-13 was assessed by evaluating the time course to kill suspensions of P. aeruginosa ATCC 27853 as described previously. […] Plates were incubated at 37 °C to determine the number of CFU after 24 h; the assays were performed in triplicate.

[20] = test system: human red blood cells (hRBCs); assay: Hemolytic activity, hemoglobin release
Method: Hemolytic activity of the peptides was assayed against human red blood cells (hRBCs) by measuring the amount of hemoglobin released after treatment. The hRBCs, freshly collected from a healthy volunteer in polycarbonate tubes containing heparin, were washed three times in sterile phosphate buffered saline (PBS) and centrifuged at 2,000 × g for 5 min or until the supernatant became clear. […] After 1 h of incubation at 37 °C, intact hRBCs were pelleted by centrifugation at 2,000 × g for 10 min. The supernatant was transferred to a new 96-well plate and the release of hemoglobin was monitored by measurement of absorbance at 405 nm using a Multiskan FC microplate reader. The hRBCs in PBS only (ODBlank) and in 0.1% Triton X-100 (ODTriton X-100) were employed as negative (0% hemolysis) and positive (100% hemolysis) controls, respectively. The percentage of hemolysis was calculated according to the following equation: %Hemolysis=(ODSample−ABlank)/(ODTritonX−100−ODBlank)×100

[21] = test system: Staphylococcus epidermidis ATCC 12228; details: ATCC 12228, 24 h
[22] = test system: MDR P. aeruginosa clinical isolate No.4; details: MDR clinical isolate No.4, 24 h

Q: How did the MBC [1] turn out when `CC[C@H](C)[C@H](NC(=O)[C@H](CCCNC(=N)N)NC(=O)[C@H](CCCCN)NC(=O)[C@H](C)NC(=O)[C@@H](NC(=O)[C@@H](N)CCCCN)[C@@H](C)CC)C(=O)N[C@@H](Cc1c[nH]c2ccccc12)C(=O)N[C@@H](CCCCN)C(=O)N[C@H](C(=O)N[C@@H](CC(C)C)C(=O)N[C@@H](CCCNC(=N)N)C(=O)N[C@@H](CCCNC(=N)N)C(=O)N[C@@H](CCCNC(=N)N)C(N)=O)[C@@H](C)CC` [PA-13] (H-KIAKRIWKILRRR-NH2; N-terminus assumed) was run?
A: The MBC was 7.81 µg/mL (≈ 4.5 µM).

Q: What about the MIC [2] of the same compound?
A: The MIC was 7.81 µg/mL (≈ 4.5 µM).

Q: And the MIC [3]?
A: Its MIC is 7.81 µg/mL (≈ 4.5 µM).

Q: And the MIC [4]?
A: The MIC was 7.81 µg/mL (≈ 4.5 µM).

Q: What about the “GM (Gr.+ strains): geometric mean of MIC values from all Gram-positive strains” value [5] of the same compound?
A: The value was 67.19 µg/mL.

Q: And the “GM (Gr.− strains): geometric mean of MIC values from all Gram-negative strains” value [6]?
A: The value was 15.90 µg/mL.

Q: And the MIC [7]?
A: Its MIC is 7.81 µg/mL (≈ 4.5 µM).

Q: And the MIC [8]?
A: Its MIC is 250 µg/mL (≈ 144 µM).

Q: And the “membrane integrity and intracellular alterations (TEM)” value [9]?
A: Its value is “disrupted cell membrane with visible pores and leakage of cellular contents”.

Q: And the MIC [10]?
A: Its MIC is 31.25 µg/mL (≈ 18 µM).

Q: And the MIC [11]?
A: Its MIC is 7.81 µg/mL (≈ 4.5 µM).

Q: What about the MIC [12] of the same compound?
A: Its MIC is 7.81 µg/mL (≈ 4.5 µM).

Q: And the “antimicrobial activity relative to ciprofloxacin” value [13]?
A: The value was 8-64 times.

Q: What about the MIC [14] of the same compound?
A: The MIC was 7.81 µg/mL (≈ 4.5 µM).

Q: And the “L929 cell survival at the MIC” value [15]?
A: The value was “up to 90%”.

Q: What about the MIC [16] of the same compound?
A: Its MIC is 7.81 µg/mL (≈ 4.5 µM).

Q: What about the MIC [17] of the same compound?
A: Its MIC is 7.81 µg/mL (≈ 4.5 µM).

Q: What about the MIC [18] of the same compound?
A: Its MIC is 3.91 µg/mL (≈ 2.25 µM).

Q: And the “P. aeruginosa count within 30 min at MIC” value [19]?
A: Its value is “approximately 10^4 CFU/ml”.

Q: What about the “time to complete killing (no regrowth)” value ([19]; at MBC) of the same compound?
A: Its value is ≤ 4 h.

Q: And the “time to eradicate most bacteria” value ([19]; at MIC (and MBC))?
A: The value was ≤ 2 h.

Q: What about the “regrowth after 24 h treatment” value ([19]; at MIC, result in words) of the same compound?
A: The value was “regrowth was observed”.

Q: What about the “P. aeruginosa count within 30 min at MBC” value ([19]; start 10^7 CFU/ml, MBC (7.81 μg/ml), MHB, 37 °C) of the same compound?
A: The value was ~10^2 CFU/ml.

Q: What about the “hemolytic activity at the MIC” value [20] of the same compound?
A: Its value is “less than 2%”.

Q: And the MIC [21]?
A: Its MIC is 3.91 µg/mL (≈ 2.25 µM).

Q: And the MIC [22]?
A: The MIC was 7.81 µg/mL (≈ 4.5 µM).
